For series [1], the system named is HIV-2. In words: Anti-HIV-2 (CBL20 strain) activity in CEM-SS cells, XTT assay. It is filed as cell-based, HIV-2 CBL20 strain in human CEM-SS cells. The conditions noted are these: acetate salts. How it is done:
(§1) The human lymphocytic target cell lines, CEM-SS and MT-2, used in the antiviral assays were maintained in RPMI 1640 medium (Gibco, Grand Island, N.Y.) without phenol red and supplemented with 5% fetal bovine serum (FBS) (Gibco), 2 mM L-glutamine, and 50 μg/ml gentamicin (Gibco) (complete medium). Exponentially-growing CEM-SS or MT-2 cells were pelleted and resuspended at a concentration of 2.0×10^5 cells/ml in complete medium. For the HIV-1 studies, the Haitian variant of HIV, HTLV-IIIRFwas used. For the HIV-2 studies, the NIH-DZ strain or the CBL20 strain was used. Frozen virus stock solutions were thawed immediately before use and resuspended in complete medium to yield 1.2×10 ^5 SFU/ml.
The appropriate amounts of the pure compounds for anti-HIV evaluations were dissolved in 100% dimethylsulfoxide (DMSO) and then diluted in complete medium to the desired initial concentration (with final DMSO content not exceeding 1%). All serial dilutions of the michellamines A, B, and C, reagent additions, and plate-to-plate transfers were carried out using an automated Biomek 1000 Workstation (Beckman Instruments, Palo Alto, Calif.). Each compound was diluted initially in complete medium and added to a single column of a 96-well microtiter plate (dilution plate). The Biomek was used to perform eight serial dilutions of each drug and to transfer a 100 μl aliquot of each dilution to the test plate. Uninfected CEM-SS or MT-2 cells were plated at a density of 1×10^4 cells in 50 μl of complete medium. Diluted HIV-1 or HIV-2 virus was then added to appropriate wells in a volume of 50 μl to yield a multiplicity of infection of 0.6. Appropriate cell, virus, and drug controls were used, with the final volume in each well being 200 μl. […] Subsequently, aliquots of cell-free supernatant were removed from each well using the Biomek, and analyzed for reverse transcriptase activity, p24 antigen production, and synthesis of infectious virions (see further below). A 25 μl sample of 0.002% (w/v) Fluoricon reference particles (590/620 nm) (Baxter Healthcare Corp.) was added to each well of the test plate to be used as an internal standard for fluorescence assays. […]
(§2) As an estimate of cellular viability, the metabolic reduction of the tetrazolium salt, XTT, to the soluble, colored formazan was carried out by adding 50 μl of the XTT/PMS solution to each well of the original test plate and incubating for 4 hrs at 37° C. After incubation the plates were covered with adhesive plate sealers (Dynatech, Alexandria, Va.) and shaken, and optical densities were determined using a V-max photometer (Molecular Devices, Inc., Menlo Park, Calif.) at a test wavelength of 450 nm. […]

The test system of a further series is uninfected CEM-SS cells. Description: Direct cytotoxicity to uninfected CEM-SS target cells (XTT/BCECF), 6 days. The conditions noted are these: acetate salts, XTT assay, Table 4. It is filed as cell-based, human. How it is done:
(§3) A battery of interrelated assays on individual wells from 96-well microtiter plates was performed to show antiviral activity. Measurements of cellular viability, in the presence and absence of the compounds in uninfected and virus-infected cells, by an adaptation of the procedure set forth in Weislow et al., J. Natl. Cancer Inst., 81, 577-586 (1989), as well as by an adaptation of a method using the fluorescent probe 2'-7'-biscar-boxyethyl-5(6)-carboxyfluorescein acetoxymethyl ester (BCECF) as set forth in Rink et al., J. Cell Biol., 95, 189-196 (1982), were performed as described herein below. BCECF is a nonfluorescent molecule which readily enters viable cells where it is hydrolyzed by cellular esterases to a fluorescent molecule. Total cellular DNA content was measured with the dye, 2-diamidino-phenylindole (DAPI), which fluoresces when intercalated at A-T specific sites in chromatin, according to the procedure set forth in McCaffrey et al., In Vitro Cell. Develop. Biol., 24, 247-252 (1988). These dyes are used in combination with Particle Concentration Fluorescent Immunoassay technology (PCFIA), specifically the Screen Machine™ available from Baxter Healthcare Corporation (Mundelein, Ill.). The Screen Machine is a semiautomated fluorescent plate reader capable of adding reagents and/or wash buffers to filter-bottomed, 96-well plates with the subsequent evacuation of fluid and concentration of fluorescently-stained cells on the cellulose acetate filter. Fluorescence is detected via epifluorescence. […]
(§4) The appropriate amounts of the pure compounds for anti-HIV evaluations were dissolved in 100% dimethylsulfoxide (DMSO) and then diluted in complete medium to the desired initial concentration (with final DMSO content not exceeding 1%). […] Subsequently, aliquots of cell-free supernatant were removed from each well using the Biomek, and analyzed for reverse transcriptase activity, p24 antigen production, and synthesis of infectious virions (see further below). […]

Series [2] relates to HIV-2. In words: Anti-HIV-2 (NIH-DZ strain) activity in MT-2 cells, XTT assay, 6 days. Type of series: cell-based, HIV-2 NIH-DZ strain in human MT-2 cells. The conditions noted are these: for antiviral effects against HIV-2: free bases or HBr salts, NIH-DZ strain, MT-2 cells. The method, then: as §1
The appropriate amounts of the pure compounds for anti-HIV evaluations were dissolved in 100% dimethylsulfoxide (DMSO) and then diluted in complete medium to the desired initial concentration (with final DMSO content not exceeding 1%). All serial dilutions of the michellamines A, B, and C, reagent additions, and plate-to-plate transfers were carried out using an automated Biomek 1000 Workstation (Beckman Instruments, Palo Alto, Calif.). […] Subsequently, aliquots of cell-free supernatant were removed from each well using the Biomek, and analyzed for reverse transcriptase activity, p24 antigen production, and synthesis of infectious virions (see further below). A 25 μl sample of 0.002% (w/v) Fluoricon reference particles (590/620 nm) (Baxter Healthcare Corp.) was added to each well of the test plate to be used as an internal standard for fluorescence assays. […]
as §2

For series [3], the system named is HIV-1. Description: Cytoprotection of HIV-1-infected CEM-SS cells, viability by XTT and/or BCECF, 6 days. Type of series: cell-based. The conditions noted are these: acetate salts, XTT assay, HIV-1, side-by-side comparison (Table 4), read-out: EC50 (anti-HIV-1 activity). The method, then:
as §3, §4

Series [4] relates to HIV-1. Conditions: cultured human lymphoblastoid cell lines; Yarchoan et al. 1986; cited from earlier work.
For a further series, the system named is HIV. It is filed as cell-based. How it is done:
A portion (2.107 g) of this extract was suspended/dissolved in 330 ml of 5% aqueous HCl and extracted with four 100 ml aliquots of CHCl3.
The crude alkaloid fraction, obtained by acid-base partitioning, was subjected to centrifugal partition chromatography (CHCl3 --CH3 OH--0.5% HBr/H2 O, 5:5:3), and elution with the lower phase gave four fractions.

The nature of series [5]: Variable temperature NMR for spontaneous interconversion of atropisomers. Type of series: physicochemical. The text has this: Michellamine C appears to have the opposite configuration from michellamine A about the C-5/C-8' and C-5"'/C-8" bonds.

We go through four compounds from patent publication US5455251A, “Michellamine antiviral agents, compositions, and treatment methods” (The United States of America as represented by the …, priority 1993, dated 1995).

“Also recorded” adds a separate entry of the source. Read-outs that look alike come from different tables or passages of the source. Bounds are passed on as bounds.

Consider `COc1cc(C)cc2c(-c3c(O)cc(O)c4c3C[C@@H](C)N[C@@H]4C)cc(-c3cc(-c4c(O)cc(O)c5c4C[C@@H](C)N[C@@H]5C)c4cc(C)cc(OC)c4c3O)c(O)c12` [Michellamine B], for which the EC50 in the series with HIV-2 [1] (listed as michellamine B) is below 2 µM; in the series with HIV-1 [3] (listed as B), 9.6 µM. Besides, in the series with uninfected CEM-SS cells (listed as B), the IC50 is above 240 µM. The EC (essentially complete protection) in the series with HIV-2 [2] (Human immunodeficiency virus 2, MT2, 144 h, read-out: concentration giving essentially complete protection against killing effects of HIV-2 upon MT-2 cells) lay within 30 to 100 µM. The “antiviral effects against HIV-2” value in the series on HIV-2 [2] (listed as michellamine B) was “showed antiviral effects; also recorded: consistently was more potent than michellamine A against HIV-2”.
Regarding `Cc1cn([C@H]2C[C@H](N=[N+]=[N-])[C@@H](CO)O2)c(=O)[nH]c1=O` [AZT], the “in vitro cytoprotective effects against HIV-1” value in the series on HIV-1 [4] is reported as “in vitro cytoprotective effects against the HIV-1”.
Turning to `COc1cc(C)cc2c(-c3c(O)cc(O)c4c3C[C@@H](C)N[C@@H]4C)cc(-c3cc(-c4c(O)cc(O)c5c4C[C@@H](C)N[C@@H]5C)c4cc(C)cc(OC)c4c3O)c(O)c12` [Michellamine A], in the series on HIV, the “anti-HIV activity of isolated compounds” value is “active”. Besides, in the series on HIV-2 [1] (listed as michellamine A), the EC50 is around 10 µM and the “anti-HIV-2 potency, comparison in words” value is on record as “somewhat less potent”. Further, the IC50 in the series on uninfected CEM-SS cells (Homo sapiens, CEM-SS) stood at 168 µM. Further, the “antiviral effects against HIV-2” value in the series with HIV-2 [2] (listed as michellamine A) is listed as “showed antiviral effects”. The concentration for a half-maximal effect (EC50) in the series with HIV-1 [3] (Human immunodeficiency virus 1, CEM-SS) was determined as 9.6 µM.
For `COc1cc(C)cc2c(-c3c(O)cc(O)c4c3C[C@@H](C)N[C@@H]4C)cc(-c3cc(-c4c(O)cc(O)c5c4C[C@@H](C)N[C@@H]5C)c4cc(C)cc(OC)c4c3O)c(O)c12` [Michellamine C], the EC50 in the series with HIV-2 [1] (listed as michellamine C) is below 2 µM; with HIV-1 [3] (listed as C), 12.8 µM. In the series with uninfected CEM-SS cells (listed as C), the IC50 came to 193 µM. Also, in series [5], the spontaneous interconversion entry is on record as “failed to show evidence of spontaneous interconversion”.
